Measurements reported in ChEMBL document CHEMBL1201862, “PubChem BioAssay data set” (2004).
Calls of active or inactive are those of the source. For most assays here, no stated cut-off is given here; in the data, actives have a measured IC50 and inactives only a lower limit.

Key:
[1] = target: T1, E3 ubiquitin-protein ligase XIAP (Homo sapiens, UniProt P98170); assay: Counter Screen using XIAP-Bir3 for Chemical Antagonists of Bir1/2 domains of IAP-family anti-apoptotic proteins. [Related pubchem assays (depositor defined):AID1018, AID1449, AID1514, AID1638, AID1749, AID1750, AID488957, AID488963]
T1 sequence (P98170 whole entry): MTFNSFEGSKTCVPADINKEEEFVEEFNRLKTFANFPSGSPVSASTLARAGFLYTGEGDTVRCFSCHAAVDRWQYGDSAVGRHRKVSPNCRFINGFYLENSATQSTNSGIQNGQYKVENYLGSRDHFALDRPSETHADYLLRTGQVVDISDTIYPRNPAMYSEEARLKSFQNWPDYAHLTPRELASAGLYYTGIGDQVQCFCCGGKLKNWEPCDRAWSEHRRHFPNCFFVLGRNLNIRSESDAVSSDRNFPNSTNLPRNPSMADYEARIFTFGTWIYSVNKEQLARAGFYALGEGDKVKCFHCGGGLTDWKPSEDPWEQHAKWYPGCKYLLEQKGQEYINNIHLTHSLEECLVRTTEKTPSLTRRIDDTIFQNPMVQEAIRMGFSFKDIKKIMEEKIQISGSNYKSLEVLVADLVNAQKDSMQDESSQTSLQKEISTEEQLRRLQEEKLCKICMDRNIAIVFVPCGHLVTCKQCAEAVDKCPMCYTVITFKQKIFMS

[2] = target: T1, E3 ubiquitin-protein ligase XIAP; assay: XIAP antagonists, biochemical, IAP family, fluorescence polarization (AID 1018); type: functional
[3] = target: Eukaryotic translation initiation factor 4H (Homo sapiens, UniProt Q15056); assay: eIF4H inhibition in translation initiation, SAR follow-up (AID 435011); type: functional
[4] = target: Polyadenylate-binding protein 1 (Homo sapiens, UniProt P11940); assay: PABP inhibition in translation initiation, SAR follow-up (AID 435018); type: functional
Polyadenylate-binding protein 1, sequence (P11940 whole entry): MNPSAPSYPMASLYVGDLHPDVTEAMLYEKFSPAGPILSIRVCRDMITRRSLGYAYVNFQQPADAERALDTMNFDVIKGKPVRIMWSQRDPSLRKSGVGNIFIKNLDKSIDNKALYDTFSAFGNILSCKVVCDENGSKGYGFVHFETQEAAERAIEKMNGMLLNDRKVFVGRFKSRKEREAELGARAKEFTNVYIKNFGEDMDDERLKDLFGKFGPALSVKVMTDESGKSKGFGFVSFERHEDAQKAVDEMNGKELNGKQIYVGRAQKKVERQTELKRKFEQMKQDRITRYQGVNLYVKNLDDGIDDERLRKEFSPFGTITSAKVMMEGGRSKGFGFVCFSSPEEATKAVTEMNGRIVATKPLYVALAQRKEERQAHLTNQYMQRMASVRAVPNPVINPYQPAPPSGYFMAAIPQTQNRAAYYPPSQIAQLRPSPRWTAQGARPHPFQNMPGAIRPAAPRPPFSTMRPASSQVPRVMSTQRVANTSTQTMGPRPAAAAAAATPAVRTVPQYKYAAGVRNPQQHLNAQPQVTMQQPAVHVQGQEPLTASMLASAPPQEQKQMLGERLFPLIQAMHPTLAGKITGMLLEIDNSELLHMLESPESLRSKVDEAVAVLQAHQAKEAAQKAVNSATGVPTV

[5] = cytotoxicity in HEK-293T cells, dose response, cytotoxicity control for TCR NF-kB inhibitor project, luminescence, T-cell screen hits (AID 489026); type: functional, cell-based;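 further: cells exposed to compound about 14 hours before the viability readout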
SUMO E1/E2 = SUMO E1/E2 (Homo sapiens, UniProt P63279+Q9UBE0+Q9UBT2); assay: SAR analysis of SUMOylation using HTRF in an in-Vitro dose response assay. [Related pubchem assays (depositor defined):AID2006, AID2011, AID2018, AID2069, AID2658]; type: functional
SUMO E1/E2, sequence (Q9UBE0 whole entry): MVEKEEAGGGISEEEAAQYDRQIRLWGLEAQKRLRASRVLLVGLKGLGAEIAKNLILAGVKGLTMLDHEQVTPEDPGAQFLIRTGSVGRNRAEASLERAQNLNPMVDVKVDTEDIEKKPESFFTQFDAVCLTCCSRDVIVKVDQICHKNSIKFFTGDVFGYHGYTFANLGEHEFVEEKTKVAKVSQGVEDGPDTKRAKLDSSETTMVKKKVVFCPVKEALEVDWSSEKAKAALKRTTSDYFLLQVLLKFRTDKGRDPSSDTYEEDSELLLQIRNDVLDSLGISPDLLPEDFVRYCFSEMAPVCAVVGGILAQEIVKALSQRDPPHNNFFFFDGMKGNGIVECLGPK
SUMO E1/E2, sequence (Q9UBT2 whole entry): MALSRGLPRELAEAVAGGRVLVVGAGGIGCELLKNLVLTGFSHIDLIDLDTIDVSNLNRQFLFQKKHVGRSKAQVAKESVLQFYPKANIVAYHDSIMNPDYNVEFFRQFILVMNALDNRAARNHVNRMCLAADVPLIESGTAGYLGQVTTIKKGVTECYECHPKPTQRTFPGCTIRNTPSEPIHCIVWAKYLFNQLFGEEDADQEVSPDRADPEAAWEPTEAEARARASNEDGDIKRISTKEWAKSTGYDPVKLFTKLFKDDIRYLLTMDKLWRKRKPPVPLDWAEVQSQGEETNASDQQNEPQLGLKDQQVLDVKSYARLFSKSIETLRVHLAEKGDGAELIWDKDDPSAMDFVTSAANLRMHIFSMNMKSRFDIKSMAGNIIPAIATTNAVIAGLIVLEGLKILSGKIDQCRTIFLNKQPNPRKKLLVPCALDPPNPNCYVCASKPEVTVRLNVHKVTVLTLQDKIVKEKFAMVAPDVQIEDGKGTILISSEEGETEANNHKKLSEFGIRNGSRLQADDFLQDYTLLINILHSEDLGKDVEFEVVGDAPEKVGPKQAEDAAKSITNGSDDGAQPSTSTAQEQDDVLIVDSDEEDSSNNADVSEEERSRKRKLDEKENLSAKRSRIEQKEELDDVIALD
SUMO E1/E2, sequence (P63279 whole entry): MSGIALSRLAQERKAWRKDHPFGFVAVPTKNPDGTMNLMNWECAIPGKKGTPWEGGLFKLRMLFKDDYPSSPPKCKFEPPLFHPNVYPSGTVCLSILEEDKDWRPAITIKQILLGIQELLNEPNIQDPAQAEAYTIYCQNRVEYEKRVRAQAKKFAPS

[6] = Luminescence Cell-Based Dose Retest to Confirm Inhibitors of Cancer Stem Cells. [Related pubchem assays (depositor defined):AID2717, AID2721]; type: functional; details: Homo sapiens
[7] = target: T2, Ubiquitin-conjugating enzyme E2 N (Homo sapiens, UniProt P61088); type: functional;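 further: Dose-response confirmation in a TR-FRET assay detecting UBC13-driven polyubiquitin chain formation, inhibition measured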
T2 sequence (P61088 whole entry): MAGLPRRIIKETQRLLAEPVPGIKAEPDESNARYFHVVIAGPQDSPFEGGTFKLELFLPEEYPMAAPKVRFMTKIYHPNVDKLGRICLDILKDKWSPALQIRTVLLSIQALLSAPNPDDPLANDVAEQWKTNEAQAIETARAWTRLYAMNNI

Integrin alpha-4 = Integrin alpha-4 (Homo sapiens, UniProt P13612); assay: VLA-4 integrin allosteric ligands, SAR follow-up, cell-based, LIBS antibody binding, flow cytometry (AID 488791); type: functional
Integrin alpha-4, sequence (P13612 whole entry): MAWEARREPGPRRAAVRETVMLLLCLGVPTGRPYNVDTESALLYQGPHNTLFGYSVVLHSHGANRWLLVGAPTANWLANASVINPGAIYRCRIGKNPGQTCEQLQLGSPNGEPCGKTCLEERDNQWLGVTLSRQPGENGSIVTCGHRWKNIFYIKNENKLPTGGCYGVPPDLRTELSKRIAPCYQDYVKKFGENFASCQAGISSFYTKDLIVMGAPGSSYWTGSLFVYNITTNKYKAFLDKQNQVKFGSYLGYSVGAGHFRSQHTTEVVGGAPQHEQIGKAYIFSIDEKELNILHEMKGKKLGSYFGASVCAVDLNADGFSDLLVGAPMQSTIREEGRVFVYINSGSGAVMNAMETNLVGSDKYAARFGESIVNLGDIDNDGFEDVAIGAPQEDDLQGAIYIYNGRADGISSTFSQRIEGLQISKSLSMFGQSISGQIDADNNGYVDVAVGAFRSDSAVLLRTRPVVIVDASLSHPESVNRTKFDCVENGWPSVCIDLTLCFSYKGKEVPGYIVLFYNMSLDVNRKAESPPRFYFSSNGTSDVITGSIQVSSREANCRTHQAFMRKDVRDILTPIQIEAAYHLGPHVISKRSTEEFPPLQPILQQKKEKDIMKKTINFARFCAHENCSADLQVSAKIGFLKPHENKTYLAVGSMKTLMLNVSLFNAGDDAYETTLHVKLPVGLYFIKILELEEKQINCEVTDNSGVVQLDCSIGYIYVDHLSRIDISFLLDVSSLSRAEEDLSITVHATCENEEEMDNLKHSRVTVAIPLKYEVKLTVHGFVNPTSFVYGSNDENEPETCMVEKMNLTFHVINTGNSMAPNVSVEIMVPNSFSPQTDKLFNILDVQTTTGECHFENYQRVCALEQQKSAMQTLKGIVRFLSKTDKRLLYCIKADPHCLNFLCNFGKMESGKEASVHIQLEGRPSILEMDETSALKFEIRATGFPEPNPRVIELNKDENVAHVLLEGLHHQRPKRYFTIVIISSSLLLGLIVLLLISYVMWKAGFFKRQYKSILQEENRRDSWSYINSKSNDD

Trypsin = Trypsin (Sus scrofa, UniProt P00761); assay: porcine trypsin inhibitors, dose response, selectivity assay for Rce1 protease inhibitor project, biochemical, quenched peptide fluorescence, cherry-pick (AID 488789)
Trypsin, sequence (P00761 whole entry): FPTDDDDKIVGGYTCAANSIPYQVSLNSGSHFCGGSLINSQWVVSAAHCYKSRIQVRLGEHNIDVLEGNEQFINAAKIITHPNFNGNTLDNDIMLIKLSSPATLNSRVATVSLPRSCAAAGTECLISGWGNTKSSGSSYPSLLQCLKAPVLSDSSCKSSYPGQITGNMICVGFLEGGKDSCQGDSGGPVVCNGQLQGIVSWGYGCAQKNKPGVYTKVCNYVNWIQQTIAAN

[8] = LGR2 antagonists, dose response, cell-based, HEK293, CRE-luciferase reporter, cherry pick, set 2 (AID 743343); type: functional;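 further: transfected cells were stimulated with diluted bursicon conditioned medium after compound addition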
[9] = MC4R antagonists, dose response, counter-screen for LGR2 antagonist project, cell-based, plate reader, cherry pick (AID 743444); type: functional;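 further: transfected HEK 293 cells stimulated with alpha-MSH peptide; potency of inhibitors of the alpha-MSH evoked signal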
[10] = target: Alkaline phosphatase, placental type (Homo sapiens, UniProt P05187); assay: PLAP enzyme inhibitors, confirmation, biochemical, luminescence (AID 1512); type: functional
Alkaline phosphatase, placental type, sequence (P05187 whole entry): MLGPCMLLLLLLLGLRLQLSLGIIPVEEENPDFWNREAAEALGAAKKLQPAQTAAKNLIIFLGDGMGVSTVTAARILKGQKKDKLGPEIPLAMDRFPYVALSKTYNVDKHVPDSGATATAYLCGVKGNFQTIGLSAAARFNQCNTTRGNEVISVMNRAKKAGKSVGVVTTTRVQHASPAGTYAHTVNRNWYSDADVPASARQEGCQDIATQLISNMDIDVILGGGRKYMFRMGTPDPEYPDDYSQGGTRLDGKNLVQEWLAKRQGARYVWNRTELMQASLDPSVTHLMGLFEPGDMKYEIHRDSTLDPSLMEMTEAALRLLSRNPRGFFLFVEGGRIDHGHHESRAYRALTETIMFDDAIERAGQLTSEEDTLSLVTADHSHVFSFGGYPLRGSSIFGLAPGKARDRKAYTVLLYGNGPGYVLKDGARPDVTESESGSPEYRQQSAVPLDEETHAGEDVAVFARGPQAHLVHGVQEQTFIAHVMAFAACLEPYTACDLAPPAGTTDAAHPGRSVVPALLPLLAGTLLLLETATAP

[11] = target: T3, Alkaline phosphatase, tissue-nonspecific isozyme (Homo sapiens, UniProt P05186); assay: human TNAP enzyme inhibitors, SAR follow-up, biochemical, luminescent, dose response (AID 1056)
T3 sequence (P05186 whole entry): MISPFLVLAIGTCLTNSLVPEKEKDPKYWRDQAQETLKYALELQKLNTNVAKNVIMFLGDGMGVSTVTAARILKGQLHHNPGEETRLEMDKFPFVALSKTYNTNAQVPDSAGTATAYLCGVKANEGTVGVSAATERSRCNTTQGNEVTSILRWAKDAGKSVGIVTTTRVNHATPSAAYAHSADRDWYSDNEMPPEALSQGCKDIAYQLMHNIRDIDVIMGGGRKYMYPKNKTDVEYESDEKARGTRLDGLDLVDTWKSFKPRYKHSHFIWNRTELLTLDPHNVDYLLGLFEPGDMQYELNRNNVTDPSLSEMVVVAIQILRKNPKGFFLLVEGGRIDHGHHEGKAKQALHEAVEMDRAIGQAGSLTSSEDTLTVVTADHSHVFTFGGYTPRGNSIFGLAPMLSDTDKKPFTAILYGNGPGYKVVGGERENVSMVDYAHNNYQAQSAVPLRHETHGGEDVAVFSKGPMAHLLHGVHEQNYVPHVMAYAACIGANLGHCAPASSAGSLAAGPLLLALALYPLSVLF

[12] = target: Glyceraldehyde-3-phosphate dehydrogenase (Homo sapiens, UniProt P04406)
Glyceraldehyde-3-phosphate dehydrogenase, sequence (P04406 whole entry): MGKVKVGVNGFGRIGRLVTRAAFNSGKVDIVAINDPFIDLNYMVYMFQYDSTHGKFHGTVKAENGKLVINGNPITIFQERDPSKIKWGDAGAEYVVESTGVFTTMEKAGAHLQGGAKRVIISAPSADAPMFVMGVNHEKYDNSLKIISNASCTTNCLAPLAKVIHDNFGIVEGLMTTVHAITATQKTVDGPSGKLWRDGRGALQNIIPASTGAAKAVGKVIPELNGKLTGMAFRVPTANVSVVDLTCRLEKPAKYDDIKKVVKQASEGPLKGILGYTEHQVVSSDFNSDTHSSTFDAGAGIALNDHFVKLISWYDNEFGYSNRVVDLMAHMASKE

HEK293 [13] = assay: cells; type: functional, cell-based; details: Homo sapiens
HEK293 [14] = assay: NOD1 signaling inhibitors, primary screen, cell-based, luminescence, uHTS (AID 1578); type: functional; details: Homo sapiens
HEK293 [15] = assay: NOD2 signaling inhibitors in MDP-stimulated cells, cell-based, uHTS, luminescence (AID 2001); type: functional; details: Homo sapiens
[16] = target: T4, Nucleotide-binding oligomerization domain-containing protein 1 (Homo sapiens, UniProt Q9Y239); assay: NOD1 signaling inhibitors, SAR follow-up, revised (AID 2333); type: functional
T4 sequence (Q9Y239 whole entry): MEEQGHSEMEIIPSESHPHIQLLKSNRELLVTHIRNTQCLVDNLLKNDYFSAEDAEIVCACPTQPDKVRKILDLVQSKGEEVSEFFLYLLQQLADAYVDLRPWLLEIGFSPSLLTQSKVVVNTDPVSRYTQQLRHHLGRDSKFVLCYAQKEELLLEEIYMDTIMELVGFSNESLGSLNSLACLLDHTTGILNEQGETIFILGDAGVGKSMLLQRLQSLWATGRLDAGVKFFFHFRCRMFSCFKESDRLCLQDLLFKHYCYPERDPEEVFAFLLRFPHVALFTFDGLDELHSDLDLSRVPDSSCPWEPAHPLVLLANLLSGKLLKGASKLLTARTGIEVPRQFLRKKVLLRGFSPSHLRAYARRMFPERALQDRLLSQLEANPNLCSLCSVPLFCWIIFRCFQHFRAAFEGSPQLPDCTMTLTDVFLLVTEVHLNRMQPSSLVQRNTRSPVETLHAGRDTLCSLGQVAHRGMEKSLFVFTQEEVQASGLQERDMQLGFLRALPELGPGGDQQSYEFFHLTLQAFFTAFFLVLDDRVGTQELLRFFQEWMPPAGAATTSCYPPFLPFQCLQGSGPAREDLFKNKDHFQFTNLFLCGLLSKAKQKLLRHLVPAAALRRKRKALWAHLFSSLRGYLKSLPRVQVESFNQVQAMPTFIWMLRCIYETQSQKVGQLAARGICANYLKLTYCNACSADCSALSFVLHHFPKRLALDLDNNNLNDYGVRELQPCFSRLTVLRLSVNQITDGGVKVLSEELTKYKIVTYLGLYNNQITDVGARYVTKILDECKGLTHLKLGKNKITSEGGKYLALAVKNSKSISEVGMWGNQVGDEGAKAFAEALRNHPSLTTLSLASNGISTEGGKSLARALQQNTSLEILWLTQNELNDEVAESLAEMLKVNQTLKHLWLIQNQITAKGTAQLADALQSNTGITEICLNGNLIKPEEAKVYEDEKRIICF

Tumor necrosis factor = Tumor necrosis factor (Homo sapiens, UniProt P01375); assay: TNFa-triggered NF-kB activation inhibitors, SAR follow-up, cell-based, revised (AID 2337); type: functional
Tumor necrosis factor, sequence (P01375 whole entry): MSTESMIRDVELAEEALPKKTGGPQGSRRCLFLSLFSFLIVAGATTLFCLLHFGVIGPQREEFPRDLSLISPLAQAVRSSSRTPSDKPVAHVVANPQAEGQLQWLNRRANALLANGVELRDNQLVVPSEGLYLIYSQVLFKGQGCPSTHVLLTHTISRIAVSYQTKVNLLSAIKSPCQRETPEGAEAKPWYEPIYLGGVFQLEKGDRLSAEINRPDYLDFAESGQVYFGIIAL

HEK293 [17] = assay: cells; details: Homo sapiens
HEK293 [18] = assay: cells; type: functional, cell-based; details: Homo sapiens; remark: listed apart in the source
[19] = target: Nucleotide-binding oligomerization domain-containing protein 2 (Homo sapiens, UniProt Q9HC29); assay: NOD2 signaling inhibitors, cell-based, luminescence, uHTS, HEK293 (AID 1566); type: functional
HEK293 [20] = assay: cells; type: functional, cell-based; details: Homo sapiens; remark: listed apart in the source

Cn1ncc(Cl)c1C(=O)N1CCN(C(=O)c2ccco2)CC1
IC50 [1]: > 100 µM (inactive)
IC50 [2]: > 100 µM (not active)

CN(C(=O)C1CCN(C(=O)c2cccs2)CC1)c1ccccc1
IC50 [3]: > 100 µM (inactive)
IC50 [4]: > 100 µM (inactive)

COc1cccc(-c2cc(=O)c3cc(NC(=O)c4ccccc4)ccc3[nH]2)c1
IC50 [5]: > 80 µM (inactive)

O=C(O)c1ccc2c(c1)C1C=CCC1C(c1ccc(F)cc1)N2 (centres undefined)
IC50 (SUMO E1/E2): > 100 µM (inactive)

c1ccc2c(-c3ccc(OCCN4CCCCC4)cc3)c(-c3ccsc3)sc2c1
AC50 [6]: 1.27 µM (active)
IC50 [7]: > 20 µM (inactive)
EC50 (Integrin alpha-4): > 69.8 µM (inactive)

c1ccc(-n2cnnc2SCc2cn3cccnc3n2)cc1
AC50 (Trypsin): 9.66 µM (active)
AC50 [8]: 30.1 µM (active)
AC50 [9]: 19.4 µM (active)

Cc1ccccc1OCc1nc2c3cnn(C)c3ncn2n1
IC50 [10]: > 100 µM (inactive)
IC50 [11]: > 100 µM (inactive)
IC50 [12]: > 100 µM (not active)

CC1CCc2c(sc(NC(=O)/C=C/c3cccs3)c2C(=O)O)C1 (centres undefined)
IC50 (HEK293 [13]): > 20 µM (inactive)
EC50 (HEK293 [14]): 6.14 µM (active)
IC50 (HEK293 [15]): 16.7 µM (inactive)
IC50 [16]: 1.55 µM (active)
IC50 (Tumor necrosis factor): 9.63 µM (active)
IC50 (HEK293 [17]): > 20 µM (inactive)
IC50 (HEK293 [18]): > 20 µM (inactive)
EC50 [19]: > 20 µM (inactive)
IC50 (HEK293 [20]): > 20 µM (inactive)
